A short description of series [1]: in vitro. To be noted: African green monkey. It counts as cell-based. Here is the method: (§1) The antiviral activity of the compounds of the invention was tested against DENV-1 strain TC974#666 (NCPV), DENV-2 strain 16681, DENV-3 strain H87 (NCPV) and DENV-4 strain H241 (NCPV) in a RT-qPCR assay. Therefore, Vero cells were infected with either DENV-1, or -2, or -3, or -4 in the presence or absence of test compounds. At day 3 post-infection, the cells were lysed and cell lysates were used to prepare cDNA of both a viral target (the 3′UTR of DENV; Table 2) and a cellular reference gene (β-actin, Table 2). Subsequently, a duplex real time PCR was performed on a Lightcycler480 instrument. The generated Cp value is inversely proportional to the amount of RNA expression of these targets. Inhibition of DENV replication by a test compound results in a shift of Cp's for the 3′UTR gene. On the other hand, if a test compound is toxic to the cells, a similar effect on β-actin expression will be observed. The comparative ΔΔCp method is used to calculate EC50, which is based on the relative gene expression of the target gene (3′UTR) normalized with the cellular housekeeping gene (β-actin). In addition, CC50 values are determined based on the Cp values acquired for the housekeeping gene β-actin.
(§2) The culture medium consisted of minimal essential medium supplemented with 2% of heat-inactivated fetal calf serum, 0.04% gentamycin (50 mg/mL) and 2 mM of L-glutamine. Vero cells, obtained from ECACC, were suspended in culture medium and 75 μL/well was added in 96-well plates (10000 cells/well), which already contain the antiviral compounds. […] In addition, each plate contains wells which are assigned as virus controls (containing cells and virus in the absence of compound) and cell controls (containing cells in the absence of virus and compound). Once the cells were added in the plates, the plates were incubated in a fully humidified incubator (37° C., 5% CO2) until the next day. Dengue viruses serotype-1, 2, 3 and 4 were diluted in order to obtain a Cp of ˜22-24 in the assay. Therefore, 25 μL of virus suspension was added to all the wells containing test compound and to the wells assigned as virus control. In parallel, 25 μL of culture medium was added to the cell controls. Next, the plates were incubated for 3 days in a fully humidified incubator (37° C., 5% CO2). After 3 days, the supernatant was removed from the wells and the cells were washed twice with ice-cold PBS (˜100 μL). The cell pellets within the 96-well plates were stored at −80° C. for at least 1 day. Next, RNA was extracted using the Cells-to-CT™ lysis kit, according to the manufacturer's guideline (Life Technologies). The cell lysates can be stored at −80° C. or immediately used in the reverse transcription step.
(§3) In preparation of the reverse transcription step, mix A (table 3A) was prepared and 7.57 μL/well was dispensed in a 96-well plate. After addition of 5 μL of the cell lysates, a five minute denaturation step at 75° C. was performed (table 3B). Afterwards, 7.43 μL of mix B was added (table 3C) and the reverse transcription step was initiated (table 3D) to generate cDNA.
(§4) Finally, a RT-qPCR mix was prepared, mix C (table 4A), and 22.02 μL/well was dispensed in 96-well LightCycler qPCR plates to which 3 μL of cDNA was added and the qPCR was performed according to the conditions in table 4B on a LightCycler 480.
(§5) Using the LightCycler software and an in-house LIMS system, dose response curves for each compound were calculated and the half maximal effective concentration (EC50) and the half maximal cytotoxic concentration (CC50) were determined (Tables 5-8).

For another series, the system named is Vero cells. The settings on record: African green monkey.
For the next series, the system named is DENV-3 strain H87. Nature of the series: Tetravalent RT-qPCR assay Protocol A, serotype 3. It counts as cell-based. The settings on record: Dengue virus, DENV3, 72 h; RT-qPCR serotype 3 H87, Vero cells, day 3. As for the experimental part:
as §1, §2, §3, §4, §5

Another series relates to DENV-2 16681 strain. Briefly: DENV-2 antiviral assay (eGFP fluorescence, Vero cells). Type of series: cell-based, Dengue virus. To be noted: DENV-2 16681 eGFP, MOI 0.5, 3 days. Here is the method:
The antiviral activity of all the compounds of the invention was tested against the DENV-2 16681 strain which was labeled with enhanced green fluorescent protein (eGPF). The culture medium consists of minimal essential medium supplemented with 2% of heat-inactivated fetal calf serum, 0.04% gentamycin (50 mg/mL) and 2 mM of L-glutamine. Vero cells, obtained from ECACC, were suspended in culture medium and 25 μL was added to 384-well plates (2500 cells/well), which already contain the antiviral compounds. Typically, these plates contain a 5-fold serial dilution of 9 dilution steps of the test compound at 200 times the final concentration in 100% DMSO (200 nL). […] Finally, each plate contains wells which are assigned as virus controls (containing cells and virus in the absence of compound), cell controls (containing cells in the absence of virus and compound) and medium controls (containing medium in the absence of cells, virus and compounds). To the wells assigned as medium control, 25 μL of culture medium was added instead of Vero cells. Once the cells were added to the plates, the plates were incubated for 30 minutes at room temperature to allow the cells to distribute evenly within the wells. Next, the plates were incubated in a fully humidified incubator (37° C., 5% CO2) until the next day. Then, DENV-2 strain 16681, labeled with eGFP, was added at a multiplicity of infection (MOI) of 0.5. Therefore, 15 μL of virus suspension was added to all the wells containing test compound and to the wells assigned as virus control. In parallel, 15 μL of culture medium was added to the medium and cell controls. Next, the plates were incubated for 3 days in a fully humidified incubator (37° C., 5% CO2). At the day of the read out, the eGFP fluorescence was measured using an automated fluorescence microscope at 488 nm (blue laser). Using an in-house LIMS system, inhibition dose response curves for each compound were calculated and the half maximal effective concentration (EC50) was determined. Therefore, the percent inhibition (I) for every test concentration is calculated using the following formula: I=100*(ST-SCC)/(SVC-SCC), ST, SCC and SVC are the amount of eGFP signal in the test compound, cell control and virus control wells, respectively. The EC50 represents the concentration of a compound at which the virus replication is inhibited with 50%, as measured by a 50% reduction of the eGFP fluorescent intensity compared to the virus control. The EC50 is calculated using linear interpolation (Table 1).

Another series deals with DENV-1 strain TC974#666. Nature of the series: Tetravalent RT-qPCR assay Protocol A, serotype 1. It counts as cell-based. To be noted: Dengue virus, DENV1, 72 h; RT-qPCR serotype 1 TC974#666, Vero cells, day 3. As for the experimental part: as §1, §2, §3, §4, §5
(In general: In qPCR the cycle at which signal appears reflects the starting amount.)

Another series has as its system DENV-2 strain 16681. Briefly: Tetravalent RT-qPCR assay Protocol A, serotype 2. It counts as cell-based. To be noted: Dengue virus. Here is the method:
as §1, §2, §3, §4, §5

The test system of another series is DENV-4 strain H241. Briefly: Tetravalent RT-qPCR assay Protocol A, serotype 4. It counts as cell-based. The settings on record: Dengue virus, DENV4, 72 h; RT-qPCR serotype 4 H241, Vero cells, day 3. Here is the method:
as §1, §2, §3, §4, §5

Series [2] can be described thus: in vitro. To be noted: African green monkey.
Setting [3] is: DENV2, 72 h, RT-qPCR serotype 2 16681, Vero cells, day 3, read-out: EC50.

Each structure is given as a SMILES string. Read-outs that look alike come from different tables or passages of the source. Bounds are passed on as bounds.

Usually EC50 stands for the concentration that produces a half-maximal response. On to `COc1cc(NC(C(=O)N2CCc3c(C)cc(OC(F)(F)F)cc32)c2ccc(Cl)cc2OCCCC(=O)O)cc(-n2cncn2)c1` (single isomer, unassigned) [Compound 16B], for which the CC50 at 3 days in “in vitro [1]” was more than 1000 nM. In addition, the CC50 in the series with Vero cells is 6200 nM. Further, the EC50 in the series on DENV-3 strain H87 came out at 0.87 nM; with DENV-2 16681 strain, 0.069 nM; with DENV-1 strain TC974#666 it was 0.092 nM; in the series with DENV-2 strain 16681 (setting [3]), 0.055 nM; with DENV-4 strain H241, 5.3 nM.

`COc1cc(NC(C(=O)N2CCc3cc(OC)c(C(F)(F)F)cc32)c2ccc(F)cc2OCCO)cc(-n2cncn2)c1` (single isomer, unassigned) [Compound 2B] showed a CC50 at 3 days in the series “in vitro [1]” of more than 2500 nM. In the series on Vero cells, the CC50 turned out to be 10000 nM. For the same compound, the EC50 in the series with DENV-3 strain H87 was 38 nM; in the series on DENV-2 16681 strain it was 1.8 nM; with DENV-1 strain TC974#666, 6 nM; with DENV-2 strain 16681 (setting [3]), 2.1 nM; in the series on DENV-4 strain H241 it was 150 nM.

In turn, `COc1cc(NC(C(=O)N2CCc3ccc(C(F)(F)F)cc32)c2ccc(Cl)cc2OCCCC(=O)O)cc(-n2cncn2)c1` (single isomer, unassigned) [Compound 11B] displayed a CC50 at 3 days in “in vitro [1]” of more than 2500 nM. This compound yielded a CC50 in the series with Vero cells of 12000 nM. Further, the EC50 in the series on DENV-3 strain H87 stood at 6.5 nM; with DENV-2 16681 strain, 0.2 nM; in the series with DENV-1 strain TC974#666 it was 0.095 nM; with DENV-2 strain 16681 (setting [3]), 0.059 nM; with DENV-4 strain H241 it was 20 nM.

`COc1cc(NC(C(=O)N2CCc3cc(OC)c(C(F)(F)F)cc32)c2ccc(Cl)cc2OCCO)cc(-n2cncn2)c1` (single isomer, unassigned) [Compound 5B]: in “in vitro [1]”, the CC50 at 3 days was more than 2500 nM. The compound further yielded a CC50 with Vero cells of 9200 nM. In addition, the EC50 was determined as 15 nM in the series with DENV-3 strain H87; 0.62 nM with DENV-2 16681 strain; 2 nM with DENV-1 strain TC974#666; 0.52 nM in the series on DENV-2 strain 16681 (setting [3]); 90 nM in the series on DENV-4 strain H241.

For the compound `COc1cc(NC(C(=O)N2CCc3ccc(C(F)(F)F)cc32)c2ccc(F)cc2OCCO)cc(-n2cncn2)c1` (single isomer, unassigned) [Compound 1B], the CC50 at 3 days in the series “in vitro [1]” was more than 2500 nM. The CC50 in the series on Vero cells amounted to 9800 nM. Further, the EC50 in the series with DENV-3 strain H87 was determined as 25 nM; in the series on DENV-2 16681 strain, 2.8 nM; in the series on DENV-1 strain TC974#666 it was 1.5 nM; in the series on DENV-2 strain 16681 (setting [3]), 2.4 nM; with DENV-4 strain H241 it was 180 nM.

Regarding `COc1cc(NC(C(=O)N2CCc3ccc(OC(F)(F)F)cc32)c2ccc(Cl)cc2OCCCC(=O)O)cc(-n2cncn2)c1` (single isomer, unassigned) [Compound 13A], the CC50 in “in vitro [2]” came out at 12000 nM. Moreover, the CC50 at 3 days in the series “in vitro [1]” is more than 2500 nM. Also, the EC50 turned out to be 1.8 nM in the series on DENV-3 strain H87; 0.12 nM in the series with DENV-2 16681 strain; 0.12 nM in the series with DENV-1 strain TC974#666; 0.057 nM in the series on DENV-2 strain 16681 (setting [3]); 10 nM in the series with DENV-4 strain H241.

Turning to `COc1cc(NC(C(=O)N2CCc3ccc(OC(F)(F)F)cc32)c2ccc(Cl)cc2OCCC(C)(C)C(=O)O)cc(-n2cncn2)c1` (single isomer, unassigned) [Compound 14B], the CC50 at 3 days in the series “in vitro [1]” was 2300 nM. In the series with Vero cells, this compound showed a CC50 of 9400 nM. For the same compound, the EC50 amounted to 5.5 nM in the series on DENV-3 strain H87; 0.27 nM in the series on DENV-2 16681 strain; 0.22 nM with DENV-1 strain TC974#666; 0.16 nM with DENV-2 strain 16681 (DENV2, Vero, 72 h); 23 nM in the series on DENV-4 strain H241.

In general, melting point refers to the temperature, or range, at which the solid turns liquid. Compound `COc1cc(NC(C(=O)N2CCc3c(C)cc(OC(F)(F)F)cc32)c2ccc(Cl)cc2OCCCC(=O)O)cc(-n2cncn2)c1` (racemic) [Compound 16, 4-(5-chloro-2-(1-((3-methoxy-5-(1H-1,2,4-triazol-1-yl)phenyl)amino)-2-(4-methyl-6-(trifluoromethoxy)indolin-1-yl)-2-oxoethyl)phenoxy)butanoic acid] showed a melting point of 214 °C. The same compound displayed a CC50 in the series “in vitro [2]” of 11000 nM. For the same compound, the EC50 in the series on DENV-2 16681 strain (Dengue virus, DENV2, Vero, 72 h) is 0.11 nM.

With `COc1cc(NC(C(=O)N2CCc3ccc(C(F)(F)F)cc32)c2ccc(Cl)cc2OCCO)cc(-n2cncn2)c1` (single isomer, unassigned) [Compound 4B], in “in vitro [1]”, the CC50 at 3 days was more than 2500 nM. In the series on Vero cells, the CC50 was 11000 nM. Also, the EC50 in the series with DENV-3 strain H87 was 11 nM; in the series on DENV-2 16681 strain, 1 nM; with DENV-1 strain TC974#666, 0.57 nM; in the series on DENV-2 strain 16681 (setting [3]), 0.45 nM; in the series on DENV-4 strain H241 it was 76 nM.

The values above are taken from patent US11083707B2, “Substituted indoline derivatives as dengue viral replication inhibitors” (JANSSEN PHARMACEUTICALS, INC., priority 2017, dated 2021).
